In general, Kd refers to a measure of binding affinity in units of concentration.

The values below come from article PMC2662524 (Biochemistry, 2008).

The target in experiment [1] is T1, cytochrome P450eryF (Saccharopolyspora erythraea, UniProt Q00441). Kind of experiment: lifetime FRET from F7GA to heme. The class given is binding.
The target of experiment [2] is T1, cytochrome P450eryF. Nature of the experiment: ligand-induced spin shift. The experiment is classed as binding.

T1 sequence (Q00441 whole entry): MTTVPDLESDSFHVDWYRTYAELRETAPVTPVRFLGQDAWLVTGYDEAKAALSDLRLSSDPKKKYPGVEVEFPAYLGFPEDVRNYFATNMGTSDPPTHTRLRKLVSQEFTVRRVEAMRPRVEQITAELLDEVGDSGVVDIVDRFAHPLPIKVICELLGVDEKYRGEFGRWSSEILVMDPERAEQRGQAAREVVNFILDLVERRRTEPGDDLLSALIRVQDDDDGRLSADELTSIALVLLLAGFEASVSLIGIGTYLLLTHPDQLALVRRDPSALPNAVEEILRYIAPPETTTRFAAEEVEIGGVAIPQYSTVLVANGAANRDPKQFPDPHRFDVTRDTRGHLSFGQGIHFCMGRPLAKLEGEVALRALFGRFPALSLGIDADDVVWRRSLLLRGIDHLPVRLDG

In the case of `CCCCNc1ccc2c3c(cccc13)C(=O)N(CCCC)C2=O` [F7GA, 2-butyl-6-(butylamino)-1H-benzo[de]isoquinoline-1,3(2H)-dione], the affinity on cytochrome P450eryF [1], expressed as Kd, was 140 ± 60 nM.

In the case of `CCN(CC)c1ccc2nc3c4ccccc4c(=O)cc-3oc2c1` [Nile Red], the dissociation constant Kd at cytochrome P450eryF [2] was 3.2 ± 0.2 µM.
